From ChEMBL document CHEMBL4229569, “Structure-Based Design of 1-Heteroaryl-1,3-propanediamine Derivatives as a Novel Series of CC-Chemokine Receptor 5 Antagonists” (J Med Chem, 2018)

How the values were obtained:
[1] = target: C-C chemokine receptor type 5 (Homo sapiens, UniProt P51681); test: Antagonist activity at CCR5 (unknown origin) expressed in HEK293 cells co-expressing Galpha16 assessed as inhibition of RANTES-induced calcium flux preincubated for 10 mins followed by RANTES addition by fluo-4AM-based fluorescence assay; format: functional, cell-based
Chain of C-C chemokine receptor type 5 (P51681 whole entry): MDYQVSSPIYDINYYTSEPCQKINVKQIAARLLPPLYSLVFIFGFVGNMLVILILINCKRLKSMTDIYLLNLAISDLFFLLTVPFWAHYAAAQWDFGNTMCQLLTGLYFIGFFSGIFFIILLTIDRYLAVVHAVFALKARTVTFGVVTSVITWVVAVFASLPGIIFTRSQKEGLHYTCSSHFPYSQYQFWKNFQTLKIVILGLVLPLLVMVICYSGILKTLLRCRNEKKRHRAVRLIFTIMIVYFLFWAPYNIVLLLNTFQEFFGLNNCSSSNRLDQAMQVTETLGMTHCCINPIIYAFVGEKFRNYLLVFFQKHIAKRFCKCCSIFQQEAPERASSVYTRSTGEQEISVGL

[2] = Cytotoxicity against human TZM-bl cells after 48 hrs by MTT assay; format: cell-based
[3] = Cmax in Sprague-Dawley rat at 20 mg/kg, po by LC-MS/MS analysis; format: ADME, organism-based; set-up: dose 20 mg/kg, route oral; settings: in vivo
[4] = Tmax in Sprague-Dawley rat at 20 mg/kg, po by LC-MS/MS analysis; format: ADME, organism-based; settings: in vivo
[5] = Half life in Sprague-Dawley rat at 20 mg/kg, po by LC-MS/MS analysis; format: ADME, organism-based; settings: in vivo
[6] = AUC (0 to infinity) in Sprague-Dawley rat at 20 mg/kg, po by LC-MS/MS analysis; format: ADME, organism-based; set-up: dose 20 mg/kg, route oral, time infinity; settings: in vivo
[7] = MRT in Sprague-Dawley rat at 20 mg/kg, po by LC-MS/MS analysis; format: ADME, organism-based; settings: in vivo
[8] = Oral bioavailability in Sprague-Dawley rat at 20 mg/kg by LC-MS/MS analysis; format: ADME, organism-based; settings: in vivo
[9] = Cmax in Sprague-Dawley rat at 10 mg/kg, iv by LC-MS/MS analysis; format: ADME, organism-based; set-up: dose 10 mg/kg, route intravenous; settings: in vivo
[10] = Tmax in Sprague-Dawley rat at 10 mg/kg, iv by LC-MS/MS analysis; format: ADME, organism-based; settings: in vivo
[11] = Half life in Sprague-Dawley rat at 10 mg/kg, iv by LC-MS/MS analysis; format: ADME, organism-based; settings: in vivo
[12] = AUC (0 to infinity) in Sprague-Dawley rat at 10 mg/kg, iv by LC-MS/MS analysis; format: ADME, organism-based; set-up: dose 10 mg/kg, time infinity, route intravenous; settings: in vivo
[13] = MRT in Sprague-Dawley rat at 10 mg/kg, iv by LC-MS/MS analysis; format: ADME, organism-based; settings: in vivo
[14] = Clearance in Sprague-Dawley rat at 10 mg/kg, iv by LC-MS/MS analysis; format: ADME, organism-based; settings: in vivo
[15] = Cmax in dog at 15 mg/kg, po by LC-MS/MS analysis; format: ADME, organism-based, Canis lupus familiaris; set-up: dose 15 mg/kg, route oral; settings: in vivo
[16] = Tmax in dog at 15 mg/kg, po by LC-MS/MS analysis; format: ADME, organism-based, Canis lupus familiaris; settings: in vivo
[17] = Half life in dog at 15 mg/kg, po by LC-MS/MS analysis; format: ADME, organism-based, Canis lupus familiaris; settings: in vivo
[18] = AUC (0 to infinity) in dog at 15 mg/kg, po by LC-MS/MS analysis; format: ADME, organism-based, Canis lupus familiaris; set-up: dose 15 mg/kg, time infinity, route oral; settings: in vivo
[19] = MRT in dog at 15 mg/kg, po by LC-MS/MS analysis; format: ADME, organism-based, Canis lupus familiaris; settings: in vivo
[20] = Oral bioavailability in dog at 15 mg/kg by LC-MS/MS analysis; format: ADME, organism-based, Canis lupus familiaris; settings: in vivo
[21] = Half life in dog at 3 mg/kg, iv by LC-MS/MS analysis; format: ADME, organism-based, Canis lupus familiaris; settings: in vivo
[22] = AUC (0 to infinity) in dog at 3 mg/kg, iv by LC-MS/MS analysis; format: ADME, organism-based, Canis lupus familiaris; set-up: dose 3 mg/kg, route intravenous, time infinity; settings: in vivo
[23] = MRT in dog at 3 mg/kg, iv by LC-MS/MS analysis; format: ADME, organism-based, Canis lupus familiaris; settings: in vivo
[24] = Clearance in dog at 3 mg/kg, iv by LC-MS/MS analysis; format: ADME, organism-based, Canis lupus familiaris; settings: in vivo
[25] = test system: Hepatocyte; test: Metabolic stability in human hepatocytes assessed as compound remaining by UPLC/Q-TOF mass spectrometric analysis; format: ADME, cell-based
[26] = test system: Hepatocyte; test: Metabolic stability in monkey hepatocytes assessed as compound remaining by UPLC/Q-TOF mass spectrometric analysis; format: ADME, cell-based, Macaca mulatta; settings: rhesus monkey
[27] = test system: Hepatocyte; test: Metabolic stability in dog hepatocytes assessed as compound remaining by UPLC/Q-TOF mass spectrometric analysis; format: ADME, cell-based, Canis lupus familiaris
[28] = test system: Hepatocyte; test: Metabolic stability in rat hepatocytes assessed as compound remaining by UPLC/Q-TOF mass spectrometric analysis; format: ADME, cell-based
[29] = target: Voltage-gated inwardly rectifying potassium channel KCNH2 (Homo sapiens, UniProt Q12809); test: Inhibition of human ERG expressed in CHO cells at holding potential of -80 mV after 60 secs by patch clamp assay; format: cell-based
Chain of Voltage-gated inwardly rectifying potassium channel KCNH2 (Q12809 whole entry): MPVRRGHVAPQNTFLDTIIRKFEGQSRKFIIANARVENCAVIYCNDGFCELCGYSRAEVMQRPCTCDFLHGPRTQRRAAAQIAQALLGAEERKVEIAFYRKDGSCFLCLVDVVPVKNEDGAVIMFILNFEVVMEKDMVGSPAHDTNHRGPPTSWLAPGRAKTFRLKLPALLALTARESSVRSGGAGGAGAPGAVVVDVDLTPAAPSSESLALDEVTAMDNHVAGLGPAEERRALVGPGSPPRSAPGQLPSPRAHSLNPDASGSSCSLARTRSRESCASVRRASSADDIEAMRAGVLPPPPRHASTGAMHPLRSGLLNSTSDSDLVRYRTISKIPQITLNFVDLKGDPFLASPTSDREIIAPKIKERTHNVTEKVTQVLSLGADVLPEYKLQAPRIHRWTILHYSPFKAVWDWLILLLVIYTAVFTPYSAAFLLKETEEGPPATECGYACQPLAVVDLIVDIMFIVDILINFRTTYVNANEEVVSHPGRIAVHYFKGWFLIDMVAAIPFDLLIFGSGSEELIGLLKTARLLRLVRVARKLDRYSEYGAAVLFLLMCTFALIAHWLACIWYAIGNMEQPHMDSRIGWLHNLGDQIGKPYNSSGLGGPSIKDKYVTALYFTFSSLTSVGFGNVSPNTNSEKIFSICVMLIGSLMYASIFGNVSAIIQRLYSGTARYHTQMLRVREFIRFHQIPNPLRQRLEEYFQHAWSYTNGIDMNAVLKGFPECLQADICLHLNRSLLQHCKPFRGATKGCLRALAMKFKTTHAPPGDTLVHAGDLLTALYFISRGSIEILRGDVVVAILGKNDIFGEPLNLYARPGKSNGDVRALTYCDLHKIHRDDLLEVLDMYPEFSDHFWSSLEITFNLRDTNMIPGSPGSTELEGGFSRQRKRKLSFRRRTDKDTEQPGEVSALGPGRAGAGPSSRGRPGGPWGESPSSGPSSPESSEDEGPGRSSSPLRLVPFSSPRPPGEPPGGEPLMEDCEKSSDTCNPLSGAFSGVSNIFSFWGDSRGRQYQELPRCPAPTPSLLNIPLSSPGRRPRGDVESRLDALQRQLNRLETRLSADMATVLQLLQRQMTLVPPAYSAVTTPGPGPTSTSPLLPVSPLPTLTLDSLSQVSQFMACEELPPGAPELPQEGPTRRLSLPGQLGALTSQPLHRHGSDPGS

[30] = target: T1, Cytochrome P450 1A2 (Homo sapiens, UniProt P05177); test: Inhibition of CYP1A2 (unknown origin); format: ADME
T1 sequence (P05177 whole entry): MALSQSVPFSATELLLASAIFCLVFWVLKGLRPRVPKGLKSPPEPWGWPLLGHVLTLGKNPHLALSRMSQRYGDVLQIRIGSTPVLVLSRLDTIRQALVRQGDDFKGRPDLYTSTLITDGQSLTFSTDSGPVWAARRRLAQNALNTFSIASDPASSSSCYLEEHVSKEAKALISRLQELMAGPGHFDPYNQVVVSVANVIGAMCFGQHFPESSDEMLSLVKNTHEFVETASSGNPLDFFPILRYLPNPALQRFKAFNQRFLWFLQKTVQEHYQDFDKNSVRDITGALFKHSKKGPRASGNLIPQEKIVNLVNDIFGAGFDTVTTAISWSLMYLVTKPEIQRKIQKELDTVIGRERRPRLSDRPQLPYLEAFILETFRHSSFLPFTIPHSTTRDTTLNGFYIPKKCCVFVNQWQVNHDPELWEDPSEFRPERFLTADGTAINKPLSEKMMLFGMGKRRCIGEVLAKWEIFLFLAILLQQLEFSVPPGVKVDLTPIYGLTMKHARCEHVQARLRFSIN

[31] = target: Cytochrome P450 2C9 (Homo sapiens, UniProt P11712); test: Inhibition of CYP2C9 (unknown origin); format: ADME
Chain of Cytochrome P450 2C9 (P11712 whole entry): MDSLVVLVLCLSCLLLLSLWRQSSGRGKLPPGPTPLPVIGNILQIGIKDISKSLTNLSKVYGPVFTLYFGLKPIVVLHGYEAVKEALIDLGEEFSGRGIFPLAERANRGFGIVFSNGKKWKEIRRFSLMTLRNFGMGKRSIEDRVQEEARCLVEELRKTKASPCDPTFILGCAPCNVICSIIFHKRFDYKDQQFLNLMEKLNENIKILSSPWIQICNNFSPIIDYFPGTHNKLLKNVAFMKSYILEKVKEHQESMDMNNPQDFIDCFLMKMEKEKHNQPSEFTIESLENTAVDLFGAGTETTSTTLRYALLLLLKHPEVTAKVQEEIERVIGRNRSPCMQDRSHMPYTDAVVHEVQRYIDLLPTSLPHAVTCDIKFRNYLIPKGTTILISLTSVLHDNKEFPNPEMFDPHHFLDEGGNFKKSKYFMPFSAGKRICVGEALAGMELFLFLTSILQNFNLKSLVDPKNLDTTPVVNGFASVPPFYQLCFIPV

[32] = target: Cytochrome P450 2C19 (Homo sapiens, UniProt P33261); test: Inhibition of CYP2C19 (unknown origin); format: ADME
Chain of Cytochrome P450 2C19 (P33261 whole entry): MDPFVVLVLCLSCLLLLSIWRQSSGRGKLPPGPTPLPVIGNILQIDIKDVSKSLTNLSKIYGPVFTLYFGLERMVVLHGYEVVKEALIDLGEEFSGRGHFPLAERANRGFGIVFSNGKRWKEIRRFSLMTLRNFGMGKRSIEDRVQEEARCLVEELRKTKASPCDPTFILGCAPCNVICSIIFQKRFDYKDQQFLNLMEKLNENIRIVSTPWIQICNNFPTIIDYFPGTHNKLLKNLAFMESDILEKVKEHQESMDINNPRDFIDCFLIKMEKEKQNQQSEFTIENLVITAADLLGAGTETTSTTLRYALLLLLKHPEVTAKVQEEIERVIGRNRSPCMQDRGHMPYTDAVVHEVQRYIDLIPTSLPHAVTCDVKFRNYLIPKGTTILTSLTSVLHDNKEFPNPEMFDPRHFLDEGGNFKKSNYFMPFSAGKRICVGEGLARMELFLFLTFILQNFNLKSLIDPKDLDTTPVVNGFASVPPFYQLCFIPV

[33] = target: Cytochrome P450 2D6 (Homo sapiens, UniProt P10635); test: Inhibition of CYP2D6 (unknown origin); format: ADME
Chain of Cytochrome P450 2D6 (P10635 whole entry): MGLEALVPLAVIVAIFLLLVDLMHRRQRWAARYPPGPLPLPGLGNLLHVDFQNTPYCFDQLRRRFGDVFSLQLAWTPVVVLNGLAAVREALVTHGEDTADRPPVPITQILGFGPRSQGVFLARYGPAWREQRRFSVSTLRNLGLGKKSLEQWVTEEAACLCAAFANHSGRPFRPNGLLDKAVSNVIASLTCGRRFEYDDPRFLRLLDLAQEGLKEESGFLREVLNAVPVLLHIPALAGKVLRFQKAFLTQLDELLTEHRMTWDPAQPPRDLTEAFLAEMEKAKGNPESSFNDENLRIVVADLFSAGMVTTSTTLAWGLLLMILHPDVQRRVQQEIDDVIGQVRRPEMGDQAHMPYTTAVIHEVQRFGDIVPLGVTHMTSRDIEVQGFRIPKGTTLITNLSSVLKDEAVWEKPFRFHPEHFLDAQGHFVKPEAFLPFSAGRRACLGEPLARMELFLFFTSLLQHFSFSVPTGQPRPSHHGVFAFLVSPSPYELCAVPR

[34] = target: T2, Cytochrome P450 3A4 (Homo sapiens, UniProt P08684); test: Inhibition of CYP3A4 (unknown origin) using midazolam as substrate; format: ADME
T2 sequence (P08684 whole entry): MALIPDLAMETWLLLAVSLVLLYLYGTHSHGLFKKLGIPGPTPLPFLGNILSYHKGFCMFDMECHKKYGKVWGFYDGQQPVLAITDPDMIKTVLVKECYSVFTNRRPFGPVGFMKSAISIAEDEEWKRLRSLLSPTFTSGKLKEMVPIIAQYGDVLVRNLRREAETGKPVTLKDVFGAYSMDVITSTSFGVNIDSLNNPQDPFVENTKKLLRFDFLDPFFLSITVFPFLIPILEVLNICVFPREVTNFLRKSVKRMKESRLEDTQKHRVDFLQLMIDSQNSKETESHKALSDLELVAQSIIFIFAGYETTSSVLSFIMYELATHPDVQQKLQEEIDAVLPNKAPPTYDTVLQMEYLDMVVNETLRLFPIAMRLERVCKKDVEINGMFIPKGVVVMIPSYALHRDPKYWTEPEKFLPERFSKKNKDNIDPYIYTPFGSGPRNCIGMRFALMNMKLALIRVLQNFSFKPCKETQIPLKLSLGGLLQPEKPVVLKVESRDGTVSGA

[35] = target: T2, Cytochrome P450 3A4; test: Inhibition of CYP3A4 (unknown origin) using testosterone as substrate; format: ADME
[36] = test system: Rattus norvegicus; test: Toxicity in rat assessed as mortality at 2000 mg/kg, po administered as single dose and measured during 14 days observation period; format: organism-based; settings: in vivo, 336 h
[37] = test system: Canis familiaris; test: Toxicity in po dosed dog assessed as drug tolerability administered as single dose; format: organism-based, Canis lupus familiaris; settings: in vivo
[38] = in vitro; settings: human, TZM-bl cells
Description: Therapeutic index, ratio of CC50 for human TZM-bl cells to EC50 for CCR5-dependent HIV1 SF162 infected in human TZM-bl cells

[39] = in vitro; settings: human, PBMC
Description: Therapeutic index, ratio of CC50 for human PBMC to IC50 for CCR5-dependent HIV1 SF162 infected in human PBMC cells

[40] = in vitro; settings: human, HOS cells
Description: Therapeutic index, ratio of CC50 for human HOS cells to IC50 for CCR5-dependent HIV1 SF162 infected in human HOS cells

[41] = in vitro; settings: human, PBMC; remark: listed apart in the source
Description: Therapeutic index, ratio of CC50 for human PBMC to IC50 for CCR5-dependent HIV1 KM018 infected in human PBMC

[42] = in vitro; settings: human, PBMC; remark: listed apart in the source
Description: Therapeutic index, ratio of CC50 for human PBMC to IC50 for CCR5-dependent HIV1 Ba-L infected in human PBMC

[43] = in vitro; settings: human, HOS cells; remark: listed apart in the source
Description: Therapeutic index, ratio of CC50 for human HOS cells to IC50 for CCR5-dependent HIV1 Ba-L infected in human HOS cells

[44] = in vitro; settings: human, PM1 cells
Description: Therapeutic index, ratio of CC50 for human PM1 cells to IC50 for CCR5-dependent HIV1 Ba-L infected in human PM1 cells

[45] = test system: Human immunodeficiency virus 1; test: microbe, parasite or virus in culture; settings: Human immunodeficiency virus 1, SF162, TZM-bl, 48 h
Description: Antiviral activity against CCR5-dependent HIV1 SF162 infected in human TZM-bl cells assessed as reduction in virus infection measured after 48 hrs post infection by luciferase reporter gene assay

[46] = test system: Human immunodeficiency virus 1; test: microbe, parasite or virus in culture; settings: Human immunodeficiency virus 1, SF162, PBMC, 168 h
Description: Antiviral activity against CCR5-dependent HIV1 SF162 infected in human PBMC assessed as reduction in virus infection measured after 7 days by luciferase reporter gene assay

[47] = test system: Human immunodeficiency virus 1; test: microbe, parasite or virus in culture; settings: Human immunodeficiency virus 1, SF162, HOS, 120 h
Description: Antiviral activity against CCR5-dependent HIV1 SF162 infected in human HOS cells assessed as reduction in virus infection measured after 5 days by luciferase reporter gene assay

[48] = test system: Human immunodeficiency virus 1; test: microbe, parasite or virus in culture; settings: Human immunodeficiency virus 1, KM018, PBMC, 168 h
Description: Antiviral activity against CCR5-dependent HIV1 KM018 infected in human PBMC assessed as reduction in virus infection measured after 7 days by luciferase reporter gene assay

[49] = test system: Human immunodeficiency virus 1; test: microbe, parasite or virus in culture; settings: Human immunodeficiency virus 1, Ba-L, PBMC, 168 h
Description: Antiviral activity against CCR5-dependent HIV1 Ba-L infected in human PBMC assessed as reduction in virus infection measured 7 days by luciferase reporter gene assay

[50] = test system: Human immunodeficiency virus 1; test: microbe, parasite or virus in culture; settings: Human immunodeficiency virus 1, Ba-L, HOS, 120 h
Description: Antiviral activity against CCR5-dependent HIV1 Ba-L infected in human HOS cells assessed as reduction in virus infection measured after 5 days by luciferase reporter gene assay

[51] = test system: Human immunodeficiency virus 1; test: microbe, parasite or virus in culture; settings: Human immunodeficiency virus 1, Ba-L, PM1, 120 h
Description: Antiviral activity against CCR5-dependent HIV1 Ba-L infected in human PM1 cells assessed as reduction in virus infection measured after 5 days by luciferase reporter gene assay

[52] = AUC in rat at 10 mg/kg, po administered as single dose; format: ADME, organism-based; settings: in vivo
[53] = Cmax in Sprague-Dawley rat at 10 mg/kg, po by LC-MS/MS analysis; format: ADME, organism-based; set-up: dose 10 mg/kg, route oral; settings: in vivo
[54] = test system: Rattus norvegicus; test: Tmax in Sprague-Dawley rat at 10 mg/kg, po by LC-MS/MS analysis; format: ADME, organism-based; settings: in vivo
[55] = Cmax in dog at 2 mg/kg, po by LC-MS/MS analysis; format: ADME, organism-based, Canis lupus familiaris; set-up: dose 2 mg/kg, route oral; settings: in vivo
[56] = Tmax in dog at 2 mg/kg, po by LC-MS/MS analysis; format: ADME, organism-based, Canis lupus familiaris; settings: in vivo
[57] = test system: Canis familiaris; test: Clearance in dog at 0.5 mg/kg, iv by LC-MS/MS analysis; format: ADME, organism-based, Canis lupus familiaris; settings: in vivo
[58] = test system: Canis familiaris; test: AUC (0 to infinity) in dog at 2 mg/kg, po by LC-MS/MS analysis; format: ADME, organism-based, Canis lupus familiaris; set-up: dose 2 mg/kg, route oral, time infinity; settings: in vivo
[59] = test system: Canis familiaris; test: Oral bioavailability in dog at 2 mg/kg by LC-MS/MS analysis; format: ADME, organism-based, Canis lupus familiaris; settings: in vivo

Structure (SMILES): Cc1nnc(C(C)C)n1[C@@H]1C[C@H]2CC[C@@H](C1)N2CC[C@H](NC(=O)C1CCC(F)(F)CC1)c1ccsc1
- IC50 [1]: 3 nM
- CC50 at 48 h [2]: > 200000 nM
- Cmax [3]: 306 ng/mL
- Tmax [4]: 2 h
- half-life [5]: 1.6 h
- AUC(0-inf) [6]: 1260 ng·h/mL
- MRT [7]: 2.6 h
- bioavailability [8]: 14.5%
- Cmax [9]: 3780 ng/mL
- Tmax [10]: 0.25 h
- half-life [11]: 1.02 h
- AUC(0-inf) [12]: 4160 ng·h/mL
- MRT [13]: 0.8 h
- clearance [14]: 16.7 mL/min/kg
- Cmax [15]: 4610 ng/mL
- Tmax [16]: 0.8 h
- half-life [17]: 3.9 h
- AUC(0-inf) [18]: 5520 ng·h/mL
- MRT [19]: 2.1 h
- bioavailability [20]: 10%
- half-life [21]: 1.7 h
- AUC(0-inf) [22]: 10900 ng·h/mL
- MRT [23]: 1.6 h
- clearance [24]: 5 mL/min/kg
- Stability [25]: > 99%
- Stability [26]: > 98%
- Stability [27]: > 97%
- Stability [28]: > 97%
- IC50 [29]: > 40000 nM
- IC50 [30]: > 25000 nM
- IC50 [31]: > 25000 nM
- IC50 [32]: > 25000 nM
- IC50 [33]: > 25000 nM
- IC50 [34]: > 25000 nM
- IC50 [35]: > 25000 nM
- Activity [36]: Non-Toxic
- Activity [37]: Non-Toxic
- selectivity ratio [38]: > 130000
- selectivity ratio [39]: 160000
- selectivity ratio [40]: 69000
- selectivity ratio [41]: 290000
- selectivity ratio [42]: 220000
- selectivity ratio [43]: 280000
- selectivity ratio [44]: 260000
- IC50 [45]: 1.5 nM
- IC50 [46]: 4.3 nM
- IC50 [47]: 4.9 nM
- IC50 [48]: 2.3 nM
- IC50 [49]: 3 nM
- IC50 [50]: 1.2 nM
- IC50 [51]: 2.8 nM

Structure (SMILES): Cc1nnc(C(C)C)n1[C@@H]1C[C@H]2CC[C@@H](C1)N2CC[C@H](NC(=O)C1CCC(F)(F)CC1)c1ccccc1 [MARAVIROC]
- AUC [52]: 12.4 ng·h/mL
- CC50 at 48 h [2]: > 200000 nM
- Cmax [53]: 5.5 ng/mL
- Tmax [54]: 2 h
- Stability [25]: 33%
- Stability [27]: 45%
- Stability [28]: 79%
- Cmax [55]: 256 ng/mL
- Tmax [56]: 0.75 h
- clearance [57]: 21 mL/min/kg
- AUC [58]: 583 ng·h/mL
- F [59]: 40%
